Measured values from US8008525B2, “Receptor function regulating agent” (Takeda Pharmaceutical Company Limited, priority 2003, dated 2011).

Experiments:
human 14273 receptor = target: T1, human 14273 receptor (Homo sapiens, UniProt Q5NUL3); assay: Test Example 1: regulating effect for 14273 receptor function (agonist effect), change in intracellular calcium level by FLIPR; assay type: cell-based; conditions: CHO cell line (No. 104) expressing human 14273 receptor, change of fluorescent intensity after 35 seconds
T1 construct: expressed in transfected cells
T1 sequence (Q5NUL3 1-361): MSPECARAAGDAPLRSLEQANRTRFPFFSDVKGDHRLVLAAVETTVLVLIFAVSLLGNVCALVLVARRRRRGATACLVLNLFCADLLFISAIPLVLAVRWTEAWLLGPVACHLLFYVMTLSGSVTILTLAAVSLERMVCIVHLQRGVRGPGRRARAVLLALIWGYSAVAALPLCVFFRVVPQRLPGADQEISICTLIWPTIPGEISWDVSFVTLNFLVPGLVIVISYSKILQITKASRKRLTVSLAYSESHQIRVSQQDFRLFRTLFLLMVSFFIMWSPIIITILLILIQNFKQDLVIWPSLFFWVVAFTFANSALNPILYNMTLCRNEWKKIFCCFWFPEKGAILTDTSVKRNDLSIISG
Method: CHO cell lines (No. 104) in which a human 14273 receptor has expressed was diluted to contain 3×10^4/100 μl cells, and dispensed in Black walled 96-well plate (Costar) at a density of 100 μl/well, followed by culturing overnight in a CO2 incubator. A change in intracellular calcium level was measured using FLIPR (Molecular Device). The method is described as below. 50 μg of Fluo-3AM (DOJIN) was dissolved in 21 μl of DMSO (DOJIN) and an equal volume of 20% pluronic acid (Molecular Probes) was added thereto, followed by mixing them. The mixture was added to 10.6 ml of the assay buffer [which is prepared by adding 10 ml of a solution, which is prepared by adding 20 ml of 1 M HEPES (pH 7.4, DOJIN) to 1 L of HBSS (Invitrogen), dissolving 710 mg of probenecid (Sigma) in 5 ml of 1 N NaOH, and further adding 5 ml of the above-mentioned HBSS/HEPES solution and mixing it.] supplemented with 105 μl of fetal bovine serum to prepare a fluorescent dye solution. The medium of the cell plate was removed, the fluorescent dye solution was dispensed in 100 μl each per well. The culturing was performed in a CO2 incubator for 1 hour to incorporate the fluorescent dye into the cells. The cells after culturing were washed with the assay buffer. The compounds to be added to the cells were diluted to each concentration with a buffer solution to which CHAPS (DOJIN) was added in 0.015%, and dispensed in a plate for the test sample. Following the pretreatment above, a change in intracellular calcium level after addition of the compound was determined with FLIPR to investigate the agonist effect. An EC50 value was calculated from dose-reaction curve using the change of fluorescent intensity after 35 seconds from the reaction initiation.

3T3-L1 adipocytes = assay: Test Example 2: suppression of lipolysis (glycerol production) in differentiated 3T3-L1 adipocytes; assay type: cell-based, mouse; conditions: treated 45 minutes, isoproterenol 1×10^−10 M, compound 40 μM and 20 μM (FIG. 14)
Method: Influence on lipolysis was investigated with use of mouse fibroblast-like cell line 3T3-L1 cells that can differentiate to adipocyte. […] The 3T3-L cells were plated on a plate and cultured to become confluent. The cells were then treated for 48 hours in the medium containing 10 μg/ml of insulin, 0.5 mM of 3-isobutyl-1-methylxanthine (IBMX) and 2.5 μM of dexamethasone to induce differentiation into adipocytes. The culturing was continued for further 11 days. After the 3T3-L1 cells were differentiated into adipocytes, a change in the amount of glycerol produced after lipolysis was assayed. After the cells were washed with modified Krebs-Ringer buffer, they were treated with the compounds for 45 minutes, and the supernatant was then recovered. The glycerol content in the supernatant was determined using a Free Glycerol Determination Kit (Sigma).

AtT-20 cells = assay: Test Example 3: suppression of CRF-induced ACTH secretion in AtT-20 cells; assay type: cell-based, mouse; conditions: 10 μM of compound; 100 nM CRF; 90 minutes; adherent AtT-20 substrain
Method: Influence on ACTH secretion from mouse pituitary corticotrophic cell line AtT-20 cells was analyzed. […] This adherent AtT-20 cell substrain was cultured on a poly-D-lysine-coated 48-well plate at a density of 1×10^5 cells/well for 2 nights, which was provided for assay. […] After washing the cells once with this buffer, a predetermined concentration of the compound was added thereto, followed by addition of a buffer containing 100 nM of a corticotropin-releasing factor (CRF), and followed by culturing at 37° C. for 90 minutes in a CO2 incubator. Then, the plate was gently stirred, then centrifuged at 1200 rpm for 5 minutes at room temperature and the buffer was recovered from the intermediate layer. The ACTH concentration was determined using an ACTH assay kit (Mitsubishi Medical, ACTH IRMA “Yuka”).

Row | EC50 (human 14273 receptor) | Compound | amount of glycerol production increased by isoproterenol stimulation (lipolysis) (3T3-L1 adipocytes) | amount of glycerol production increased by isoproterenol stimulation (lipolysis) (3T3-L1 adipocytes; listed as Reference example 16) | lowering of the amount of ACTH secretion increased by CRF stimulation (AtT-20 cells)
1 | ≤ 10 µM | O=C(O)CCc1ccc(OC2CCc3ccccc32)c(Cl)c1 (centres unmarked) [Reference Example 16, 3-Chloro-4-[(2,3-dihydro-1H-inden-1-yl)oxy]benzenepropanoic acid] | inhibitory effect | lowering the amount of the glycerol production | –
2 | ≤ 10 µM | O=C(O)CCc1ccc(OCc2cccc(Oc3ccc(F)cc3)c2)c(F)c1 [Example 161, 3-(3-fluoro-4-{[3-(4-fluorophenoxy)benzyl]oxy}phenyl)propanoic acid] | – | – | 49%
